From PubChem BioAssay (NCI)
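Growth conditions: 96-well plates. Treatment: test compound, 48 hours, 5 concentrations. Analysis: linear interpolation between bracketing concentrations; unreached endpoints set to highest concentration. TGI: concentration producing complete growth inhibition.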

Columns and labels:
Experiment in all cases: NCI anticancer screen, dose series, 48 h
HL-60(TB) leukemia = tested on: HL-60(TB) leukemia
OVCAR-5 ovarian = tested on: OVCAR-5 ovarian
UACC-257 melanoma = tested on: UACC-257 melanoma
EKVX NSCLC = tested on: EKVX NSCLC
786-0 renal = tested on: 786-0 renal
DLD-1 colon = tested on: DLD-1 colon
A549 NSCLC = tested on: A549 NSCLC
SK-MEL-5 melanoma = tested on: SK-MEL-5 melanoma
DMS 273 small cell lung = tested on: DMS 273 small cell lung
UACC-62 melanoma = tested on: UACC-62 melanoma
HT29 colon = tested on: HT29 colon
OVCAR-3 ovarian = tested on: OVCAR-3 ovarian
HCC-2998 colon = tested on: HCC-2998 colon
DMS 114 small cell lung = tested on: DMS 114 small cell lung
HCT-15 colon = tested on: HCT-15 colon
HCT-116 colon = tested on: HCT-116 colon
M19-MEL melanoma = tested on: M19-MEL melanoma
LXFL 529 NSCLC = tested on: LXFL 529 NSCLC
SNB-19 CNS = tested on: SNB-19 CNS
CCRF-CEM leukemia = tested on: CCRF-CEM leukemia
SK-OV-3 ovarian = tested on: SK-OV-3 ovarian
SW-620 colon = tested on: SW-620 colon
IGROV1 ovarian = tested on: IGROV1 ovarian
NCI-H23 lung = tested on: NCI-H23 lung
TK-10 renal = tested on: TK-10 renal
MOLT-4 leukemia = tested on: MOLT-4 leukemia
SNB-78 CNS = tested on: SNB-78 CNS
A498 renal = tested on: A498 renal
K-562 leukemia = tested on: K-562 leukemia
OVCAR-4 ovarian = tested on: OVCAR-4 ovarian
KM12 colon = tested on: KM12 colon
SF-295 CNS = tested on: SF-295 CNS
NCI-H460 lung = tested on: NCI-H460 lung
SNB-75 CNS = tested on: SNB-75 CNS
HOP-18 NSCLC = tested on: HOP-18 NSCLC
OVCAR-8 ovarian = tested on: OVCAR-8 ovarian
MALME-3M melanoma = tested on: MALME-3M melanoma
COLO 205 colon = tested on: COLO 205 colon
SF-268 CNS = tested on: SF-268 CNS
M14 melanoma = tested on: M14 melanoma
UO-31 renal = tested on: UO-31 renal
ACHN renal = tested on: ACHN renal
U251 CNS = tested on: U251 CNS
SN12C renal = tested on: SN12C renal
SK-MEL-28 melanoma = tested on: SK-MEL-28 melanoma
SF-539 CNS = tested on: SF-539 CNS
SK-MEL-2 melanoma = tested on: SK-MEL-2 melanoma
RPMI-8226 leukemia = tested on: RPMI-8226 leukemia
CAKI-1 renal = tested on: CAKI-1 renal
KM20L2 colon = tested on: KM20L2 colon
LOX IMVI melanoma = tested on: LOX IMVI melanoma
NCI-H226 lung = tested on: NCI-H226 lung
RXF 393 renal = tested on: RXF 393 renal

Measured: TGI

CC(C)=CC(=O)C/C(=N\NC(N)=S)C(=O)Nc1ccc(Cl)cc1
> 100 µM: all assays above
